{
  "source": "patent US7041466B2",
  "about": "“Mouse disease model for evaluation of prophylactic and therapeutic treatments of Chlamydia” (priority 2002, dated 2006)",
  "key": {"C. pneumoniae": {"system": "C. pneumoniae", "settings": "mouse, in vivo"}, "[1]": {"system": "IL-12p70, IFN-γ, NOS2, arginase I, arginase II in lung tissue", "settings": "mouse, in vivo, 6 mg/kg"}, "C. psittaci": {"system": "C. psittaci", "settings": "mouse, in vivo"}, "splenic CD4+ T cells": {"system": "splenic CD4+ T cells", "settings": "mouse, in vivo, 6 mg/kg/day"}, "C. psittaci strain B577": {"system": "C. psittaci strain B577", "settings": "mouse, in vivo"}, "NO production": {"system": "NO production", "settings": "mouse, in vivo"}},
  "note": "Entries after “also recorded” stand apart in the source; their conditions may differ. Read-outs that look alike come from different tables or passages of the source.",
  "data": [
    {"smiles": "N=C(N)NN", "note": "[AG, aminoguanidine]", "values": [
      {"measurement": "chlamydial lung loads after secondary infection", "setting": "C. pneumoniae", "value": "reduced chlamydial lung loads"},
      {"measurement": "gross lung disease after secondary infection", "setting": "C. pneumoniae", "value": "free of gross lung disease"},
      {"measurement": "interstitial pneumonia on day 7 after secondary infection", "setting": "C. pneumoniae", "value": "completely abolished the development of interstitial pneumonia"},
      {"measurement": "NOS2, arginase I and arginase II transcript levels on days 4 and 12", "setting": "[1]", "value": "resembled those of BALB/c mice"},
      {"measurement": "day-4 pulmonary IFN-γ transcripts", "setting": "[1]", "value": "significant increase"},
      {"measurement": "day-4 pulmonary concentration of IL-12 p70", "setting": "[1]", "value": "significant increase"},
      {"measurement": "reduction of chlamydial lung burden", "setting": "C. psittaci", "value": "more than 10 fold"},
      {"measurement": "chlamydial burden on day 7 after secondary infection", "setting": "C. psittaci; 100 mg/kg", "value": "substantially, but not significantly, higher"},
      {"measurement": "disease (interstitial pneumonia) on day 7 after secondary infection", "setting": "C. psittaci; 100 mg/kg", "value": "completely abolished disease; also recorded: completely abolished the development of interstitial pneumonia"},
      {"measurement": "disease on day 7 after secondary infection", "setting": "C. psittaci; 100 mg/kg", "value": "marginally increased"},
      {"measurement": "CD4+ splenocytes, day 4", "setting": "splenic CD4+ T cells", "value": "28.0±0.55", "unit": "%"},
      {"measurement": "chlamydial lung burden on day 7", "setting": "C. psittaci strain B577", "value": "higher chlamydial burdens"},
      {"measurement": "day-12 chlamydial lung burden", "setting": "C. psittaci strain B577", "value": "greatly reduced"},
      {"measurement": "day-12 disease", "setting": "C. psittaci strain B577", "value": "did not show significant changes"},
      {"measurement": "day-12 disease (lung weight increase)", "setting": "C. psittaci strain B577", "value": "developed severe day-12 disease"},
      {"measurement": "day-12 disease phenotype (lung weight increase)", "setting": "C. psittaci strain B577", "value": "completely reversed the severe day-12 disease phenotype; also recorded: completely protected; also recorded: protected from disease"},
      {"measurement": "disease outcomes and numbers of chlamydiae in lung tissue", "setting": "C. psittaci strain B577", "value": "did not change disease outcomes"},
      {"measurement": "elimination of chlamydiae from lungs after day 7", "setting": "C. psittaci strain B577", "value": "significantly more rapidly"},
      {"measurement": "day-4 serum nitrite/nitrate", "setting": "NO production; 6 mg/kg/day", "value": "73.2 ± 3.8", "unit": "µM"},
      {"measurement": "day-4 serum nitrite/nitrate", "setting": "NO production; 200 mg/kg/day", "value": "39.7 ± 2.9", "unit": "µM"},
      {"measurement": "serum nitrite/nitrate (NO production), change in words", "setting": "NO production; ip", "value": "significantly reduced; also recorded: reduced NO production of infected C57BL/6 mice in a dose-dependent manner"}
    ]},
    {"smiles": "CCC[C@H](N)C(=O)O", "note": "[L-norvaline]", "values": [
      {"measurement": "chlamydial lung disease (lung weight increase), change in words", "setting": "C. psittaci strain B577", "value": "significantly increased; also recorded: partially reverted to a disease phenotype"},
      {"measurement": "chlamydial lung disease, change in words", "setting": "C. psittaci strain B577", "value": "did not change the disease"},
      {"measurement": "day-4 serum nitrite/nitrate", "setting": "NO production", "value": "123.22 ± 38.8", "unit": "µM"},
      {"measurement": "serum nitrite/nitrate (NO production), change in words", "setting": "NO production", "value": "significantly increased; also recorded: produced more NO"}
    ]}
  ]
}
